Assay results as given in patent publication US20240207427A1, “SELECTIVE DRUG RELEASE FROM INTERNALIZED CONJUGATES OF BIOLOGICALLY ACTIVE COMPOUNDS” (priority 2021, published 2024).
pIC50: −log10 of the molar value.

How the values were obtained:
Format in all cases: cell-based
[1] = tested on: breast cancer cells (MDA-MB-231); test: In vitro potency (CellTiter-Glo, 96 h), MDA-MB-231; details: Homo sapiens, MDA-MB-231, 96 h, CPT free drugs, Table 24; CellTiter-Glo after 96 h exposure; read-out: IC50 (nmol/L) MDAMB231
In short: (§1)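 Growth inhibition after 96 h at 37 °C with test article, measured by luminescence; cells in RPMI 1640, 20% FBS.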

[2] = tested on: pancreatic cancer cells (BxPC3); test: In vitro potency (CellTiter-Glo, 96 h), BxPC3; details: Homo sapiens, BXPC-3, 96 h, CPT free drugs, Table 24; CellTiter-Glo after 96 h exposure; read-out: IC50 (nmol/L) BxPC3
In short: (§2)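 Log-phase cells were seeded for 24 h in RPMI 1640 with 20% FBS, then exposed to serially diluted antibody-drug conjugates or free camptothecin drug for 4 days at 37 °C. Growth inhibition was read by luminescence, and IC50 values were reported in ng/mL and nmol/L.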

[3] = tested on: B-lymphocyte cancer cells (SU-DHL4); test: In vitro potency (CellTiter-Glo, 96 h), SU-DHL-4; details: Homo sapiens, SU-DHL-4, 96 h, CPT free drugs, Table 24; CellTiter-Glo after 96 h exposure; read-out: IC50 (nmol/L) SU-DHL-4
In short: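 Four-day continuous exposure at 37 °C to serially diluted ADC or free camptothecin payload, in RPMI 1640 with 20% FBS after 24 h pre-plating. Luminescent signal gave IC50 (ng/mL; nmol/L).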

[4] = tested on: non-small-cell lung cancer cells (Calu1); test: In vitro potency (CellTiter-Glo, 96 h), Calu1; details: Homo sapiens, Calu-1, 96 h, CPT free drugs, Table 24; CellTiter-Glo after 96 h exposure; read-out: IC50 (nmol/L) Calu1
In short: as §1

[5] = tested on: anaplastic large cell lymphoma cells (DELBVR); test: In vitro potency (CellTiter-Glo, 96 h), DELBVR; details: CPT free drugs, Table 24, CellTiter-Glo after 96 h exposure, read-out: IC50 (nmol/L) DELBVR
In short: as §1

Ls174T cells = test: In vitro potency (CellTiter-Glo, 96 h), Ls174T; details: Homo sapiens, LS174T; CPT free drugs, Table 24; CellTiter-Glo after 96 h exposure; read-out: IC50 (nmol/L) Ls174T
In short: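 Medium: RPMI 1640 + 20% FBS. Pre-seeding: 24 h. Treatment: ADC or CPT free drug serial dilutions, 96 h, 37 °C. Read-out: luminescence; IC50 in ng/mL and nmol/L.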

[6] = tested on: Hodgkin's lymphoma cells (L540cy); test: In vitro potency (CellTiter-Glo, 96 h), L540cy; details: CPT free drugs, Table 24, CellTiter-Glo after 96 h exposure, read-out: IC50 (nmol/L) L540cy
In short: as §1

[7] = tested on: acute myeloid leukemia cells (MOLM-13); test: In vitro potency (CellTiter-Glo, 96 h), MOLM-13; details: Homo sapiens, MOLM-13, 96 h, CPT free drugs, Table 24; CellTiter-Glo after 96 h exposure; read-out: IC50 (nmol/L) MOLM-13
In short: as §2

[8] = tested on: anaplastic large cell lymphoma cells (Karpas299); test: In vitro potency (CellTiter-Glo, 96 h), Karpas299; details: Homo sapiens, KARPAS-299, 96 h, CPT free drugs, Table 24; CellTiter-Glo after 96 h exposure; read-out: IC50 (nmol/L) Karpas299
In short: as §1

[9] = tested on: renal carcinoma cells (786-O); test: In vitro potency (CellTiter-Glo, 96 h), 786-O; details: Homo sapiens, 786-0, 96 h, CPT free drugs, Table 24; CellTiter-Glo after 96 h exposure; read-out: IC50 (nmol/L) 786-O
In short: as §1

melanoma cells (A2058) = test: In vitro potency (CellTiter-Glo, 96 h), A2058; details: Homo sapiens, A2058, 96 h, CPT free drugs, Table 24; CellTiter-Glo after 96 h exposure; read-out: IC50 (nmol/L) A2058
In short: as §1

[10] = tested on: anaplastic large cell lymphoma cells (DEL); test: In vitro potency (CellTiter-Glo, 96 h), DEL; details: CPT free drugs, Table 24, CellTiter-Glo after 96 h exposure, read-out: IC50 (nmol/L) DEL
In short: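 Authenticated lines (STR), used within 2 months of resuscitation, were seeded 24 h before treatment. Exposure to ADC dilutions lasted 96 h at 37 °C in RPMI 1640 with 20% FBS; viability was quantified luminescently.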

CC[C@@]1(O)C(=O)OCc2c1cc1n(c2=O)Cc2c-1nc1ccc(OC)cc1c2CN [Compound 2d]
pIC50 [1]: 8.40 | pIC50 [2]: 7.92 | pIC50 [3]: 8.40 | pIC50 [4]: 7.37 | pIC50 [5]: 9.00 | pIC50 (Ls174T cells): 8.43 | pIC50 [6]: 8.70 | pIC50 [7]: 7.60 | pIC50 [8]: 8.15 | pIC50 [9]: 8.30 | pIC50 (melanoma cells (A2058)): 8.70 | pIC50 [10]: 9.00

CC[C@@]1(O)C(=O)OCc2c1cc1n(c2=O)Cc2c-1nc1ccc(Br)cc1c2CN [Compound 2e]
pIC50 [1]: 8.15 | pIC50 [2]: 7.51 | pIC50 [3]: 8.24 | pIC50 [4]: 7.26 | pIC50 [5]: 8.40 | pIC50 (Ls174T cells): 8.35 | pIC50 [6]: 8.37 | pIC50 [7]: 7.25 | pIC50 [8]: 7.97 | pIC50 [9]: 8.38 | pIC50 (melanoma cells (A2058)): 8.30 | pIC50 [10]: 9.00

CC[C@@]1(O)C(=O)OCc2c1cc1n(c2=O)Cc2c-1nc1cc(F)ccc1c2CN [Compound 2f]
pIC50 [1]: 8.40 | pIC50 [2]: 8.05 | pIC50 [3]: 8.40 | pIC50 [4]: 7.40 | pIC50 [5]: 8.92 | pIC50 (Ls174T cells): 8.41 | pIC50 [6]: 8.52 | pIC50 [7]: 7.96 | pIC50 [8]: 8.22 | pIC50 [9]: 8.22 | pIC50 (melanoma cells (A2058)): 8.70 | pIC50 [10]: 9.00

CC[C@@]1(O)C(=O)OCc2c1cc1n(c2=O)Cc2c-1nc1ccc(C(F)(F)F)cc1c2CN [Compound 2g]
pIC50 [1]: 7.10 | pIC50 [2]: 6.59 | pIC50 [3]: 7.22 | pIC50 [4]: 6.12 | pIC50 [5]: 7.47 | pIC50 (Ls174T cells): 7.19 | pIC50 [6]: 7.21 | pIC50 [7]: 6.22 | pIC50 [8]: 6.66 | pIC50 [9]: 6.99 | pIC50 (melanoma cells (A2058)): 7.43 | pIC50 [10]: 7.75

CC[C@@]1(O)C(=O)OCc2c1cc1n(c2=O)Cc2c-1nc1cc(F)c(C)cc1c2CN [Compound 2h]
pIC50 [1]: 8.70 | pIC50 [2]: 8.10 | pIC50 [3]: 8.70 | pIC50 [4]: 7.80 | pIC50 [5]: 9.10 | pIC50 (Ls174T cells): 8.77 | pIC50 [6]: 8.52 | pIC50 [7]: 7.85 | pIC50 [8]: 8.52 | pIC50 [9]: 8.52 | pIC50 (melanoma cells (A2058)): 9.00 | pIC50 [10]: 9.30

CC[C@@]1(O)C(=O)OCc2c1cc1n(c2=O)Cc2c-1nc1cc(F)c(OC)cc1c2CN [Compound 2i]
pIC50 [1]: 8.40 | pIC50 [2]: 8.00 | pIC50 [3]: 8.40 | pIC50 [4]: 7.51 | pIC50 [5]: 9.00 | pIC50 (Ls174T cells): 8.47 | pIC50 [6]: 8.70 | pIC50 [7]: 7.89 | pIC50 [8]: 8.30 | pIC50 [9]: 8.30 | pIC50 (melanoma cells (A2058)): 8.70 | pIC50 [10]: 9.00
